# Tested on: A549-Luc-BM1 cells in the mouse tibia
# Assay: Tumor-induced bone disease model, intra-tibial A549-Luc-BM1, bioluminescence imaging
# Type: in vivo, BALB/c nude mice
# Settings: day 28; 4 weeks; oral once daily TAS-115 200 mg/kg, cabozantinib 15 mg/kg, sunitinib 40 mg/kg, crizotinib 100 mg/kg; ZA 0.2 mg/kg s.c. twice weekly
# Procedure: Tumor growth in the tibiae was monitored by bioluminescence imaging using an IVIS Lumina II Imaging System (PerkinElmer, MA). […] Images were analyzed using the Living Image 3.1 software (PerkinElmer). Total photon flux (TP) was calculated by summation of the photon flux of ventral and right lateral images. One week post tumor implantation, 8–9 animals were allocated to each experimental group by a stratified randomization method with SAS version 9.2 (SAS Institute Japan, Tokyo, Japan) using TP as an allocation parameter, following which drug treatment was then started. […] The doses of each drug were selected based on the maximum tolerated dose (MTD) in in-house studies (data not shown). […] Zoledronic acid (ZA) was subcutaneously injected twice weekly for 4 weeks at a dose of 0.2 mg/kg, which was a previously reported efficacious dose. The allocation day was set as day 0, and drug administration was initiated from day 1. As an indicator of changes in tumor growth during the dosing period, relative total photon flux (RTP), was calculated according to the following formula: RTPday n = (TP on each measurement day) / (TPday 0) × 100. TPday 0 is the TP on the allocation day.
structure (smiles),measurement,value
"CNC(=O)c1cc2c(Oc3ccc(NC(=S)NC(=O)Cc4ccccc4)cc3F)ccnc2cc1OC [TAS-115, 4-[2-fluoro-4-[[[(2-phenylacetyl)amino]thioxomethyl]amino]-phenoxy] -7-methoxy-N-methyl-6-quinolinecarboxamide]",tumor growth inhibition percentage (TGI),85%

# Reference: PMC5063576, “High Potency VEGFRs/MET/FMS Triple Blockade by TAS-115 Concomitantly Suppresses Tumor Progression and Bone Destruction in Tumor-Induced Bone Disease Model with Lung Carcinoma Cells” (PLoS ONE, 2016)
